{
  "source": "PubChem BioAssay AID720587",
  "about": "(Broad Institute, 2013)",
  "note": "Activity calls are given as the source filed them.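 How the source made its calls: active means fitted curve reaches -35% activity change at a concentration below twice the top valid dose tested; inactive means the rest, including effects opposite to the expected direction.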",
  "data": [
    {"experiment": "EWS/Fli1-dependent A673 cell killing, confirmation, CellTiter-Glo luminescence, cherry-pick retest (AID 720587)", "conditions": "A673 Ewing sarcoma viability, CellTiter-Glo ATP luminescence, 72 h; at 26 µM (top of the series)", "values": [
      {"smiles": "CCCn1c(C)cc(C(=O)CN2C(=O)c3ccccc3S2(=O)=O)c1C", "activity change, negative = cytotoxicity": "11.3% (inactive)"},
      {"smiles": "CC(C)NC(=O)N(C)C[C@@H]1Oc2cc(C#Cc3ccc(F)cc3)ccc2S(=O)(=O)N([C@H](C)CO)C[C@H]1C", "activity change, negative = cytotoxicity": "-18.2% (inactive)"},
      {"smiles": "CCc1c(C(=O)NN2C(=O)C3CCCCC3C2=O)csc1C", "note": "(stereo not given)", "activity change, negative = cytotoxicity": "-1.99% (inactive)"},
      {"smiles": "Cc1ccc(NC(=O)CCN2CCCCC2)cc1", "activity change, negative = cytotoxicity": "12.4% (inactive)"},
      {"smiles": "CCNC(=O)c1cccc(S(=O)(=O)N2CCCCCC2)c1", "activity change, negative = cytotoxicity": "0.705% (inactive)"}
    ]}
  ]
}
